# Experimental data taken from US7919077B2, “Pharmaceutical compositions comprising CCL2 and use of same for the treatment of inflammation” (Yeda Research and Development Co. Ltd., priority 2006, dated 2011).
# Tests used:
# naïve T cells [1] = assay: Cytoskeleton rearrangement (actin polymerization), naïve T cells; assay type: cell-based, mice; conditions: naïve T cells pre-treated with CCL2 0.1 ng/ml, 15 seconds stimulation
# Experimental: Cytoskeleton rearrangement—T cells were pre-incubated for 30 minutes in the presence or absence of CCL2 (0.1 ng/ml), and then stimulated with either CXCL12 (0.1 mg/ml PeproTech, Inc., Rocky Hill N.J.), SLC (CCL21, 0.4 mg/ml, PeproTech, Inc., Rocky Hill, N.J.), Rantes (0.1 mg/ml, R&D systems Minneapolis, Minn.), MIP-1β(0.1 mg/ml, R&D systems Minneapolis, Minn.) or Eotoxin (0.1 mg/ml R&D systems Minneapolis, Minn.) for 15 seconds. Cells were then immediately fixed with paraformaldehyde, permeabilized and their intracellular F-actin was stained with FITC-phalloidin (Sigma-Aldrich, St. Louis, Mo.), and then analyzed by flow cytometry to determine the state of their cytoskeleton, as previously described [Flaishon, L. F., et al., J. Biol. Chem. 276:46701 (2001)].
# naïve T cells [2] = assay: Tracking of cells in vivo: homing of naïve T cells to LN and spleen; design: species or system C57BL/6 mice; conditions: cells pre-incubated 30 min with CCL2 0.1 ng/ml, injected i.v., 3 hours, vs control
# Experimental: Tracking of cells in vivo—T cells pre-incubated for 30 minutes in the presence or absence of CCL2 (0.1 ng/ml RPMI) were washed, and labeled with […] of the fluorescent dye CFDA-SE (Molecular Probes/Invitrogen, Carlsbad, Calif., USA) for 15 minutes at room temperature. Thereafter, an equal amount (0.33×10^7) of CCL2-treated or -untreated cells were injected i.v. into C57BL/6 mice. After 3 hours, LNs and spleens were collected and the FITC-positive population was analyzed by FACS. The proportion of labeled cells recovered in the LN and spleen was determined as previously described [Flaishon, L. R., J. Exp. Med. 192:1381 (2000)] in four different experiments (10 mice in each group).
# [3] = OVA sensitization and challenge mouse asthma model; assay type: in vivo, BALB/c mice; conditions: OVA-challenged mice
# Experimental: Ovalbumin (OVA) sensitization, challenge and treatment with CCL2—OVA sensitization and challenge were effected following a previously described protocol [Flaishon, L., et al., J. Immunol: Cutting edge 168: 3707 (2002)], BALB/c mice (average: 9 mice/group) were sensitized for OVA by intraperitoneal injections with 100 μg of chicken egg ovalbumin (OVA; Sigma-Aldrich, St. Louis, Mo.) mixed with 2 mg of aluminum hydroxide (Pierce, Rockford, Ill.) in 300 μl PBS (control group mice were injected with PSB alone). Injections were given on day 0, 7, and 14. 15 days after initial sensitization, and following, animals were challenged daily for 5 days (days 15-19) by inhaling 4% OVA in PBS, administered by an ultrasonic nebulizer (DeVilbiss, Somersel, Pa.) for 20 minutes, while the control group was challenged with PBS alone.
# One of the groups injected and challenged by OVA was additionally injected i.p. with 300 μl PBS from the first day of OVA inhalation (day 15), for 5 days 20 minutes before each inhalation, and another group was additionally injected with murine CCL2 (60 ng CCL2 per animal per day). PBS-treated control group was PBS challenged and PBS injected. On day 18, 2 hours following inhalation, mice were anesthetized by an i.p. injection of 0.2 ml Ketamine/xylazine, and airway hyper-responsiveness (AHR) was determined by calculating the enhanced respiratory pause (Penh), a function of the ratio of peak expiratory flow to peak inspiratory flow and a function of the timing of expiration, measured in a plethysmographic box during expiration. Delta Penh was calculated by subtracting control Penh measurements, before antigen challenge, from the Penh measurements after antigen challenge. […] On day 19 the mice were sacrificed 2 hours after the last inhalation.
# Lung histology—Lungs from mice participating in the OVA sensitization and challenge assay were inflated with 1 ml of 10% formalin until distended. Samples for paraffin sectioning were immersed in 10% formalin and fixed for 48 hours. The tissues were then embedded in paraffin and 2-3 micrometer sections were prepared. […]
# TNBS colitis mouse model = assay type: in vivo, mice; conditions: for Diarrhea (# of mice): 8 mice; for Colitis score: Wallace score 0 to 16
# Experimental: TNBS colitis model and treatment with CCL2—TNBS colitis was induced as previously described [Ohkawara et al. (2002) Gastroenterology, 123:256]. Briefly, mice were anesthetized by i.p. injection (35 μl per mouse) of a mixture containing 85% ketamine and 15% xylazine (20 mg/ml). Next, 100 μl of TNBS [55% volume of 50% ethanol mixed with 45% volume of TNBS solution ([…]; Sigma-Aldrich)] was infused into the colonic lumen (about 3.5 cm of the anal verge) via 1 ml syringe attached to a feeding needle. Treated mice were weighted daily and visually inspected for clinical symptoms, such as rectal bleeding and diarrhea.
# TNBS mice were divided into 6 groups. CCL2 groups (10 mice in each group) were injected i.p. daily with different CCL2 concentrations (30 ng, 60 ng or 180 ng) in 200 μl of PBS from day 0 (immediately after TNBS induction) to day 6. Control groups (10 mice in each group) were injected i.p. daily with 200 μl PBS alone. Additionally, 5 mice were injected i.p. daily with dexamethasone; and 1 mouse which was not treated and served as negative control for future histology and weight.
# Macroscopic and histological assessment of colitis—An observer blind to the experimental procedure scored colitis for clinical manifestation of disease. The colon was macroscopically examined (×5 magnification) to evaluate the macroscopic lesions according to the Wallace criteria. The Wallace score ranks macroscopic colon lesions on a scale from 0 to 16 based on criteria reflecting inflammation, such as hyperemia, thickening of the bowel and the extent of ulceration. The colon was cut lengthwise and fixed in 4% paraformaldehyde for future histology.
# [4] = CCL2 30 ng i.p. daily day 0 to day 6
# [5] = CCL2 60 ng i.p. daily day 0 to day 6
# [6] = CCL2 180 ng i.p. daily day 0 to day 6
substance,measurement,setting,value
"CCL2: mammalian (e.g., human) CCL2 protein, GenBank NM_002982 / NP_002973; murine CCL2 used in the asthma model",inhibition of CXCL12-induced actin polymerization,naïve T cells [1]; FIG. 2c,40-50%
same,inhibition of CCL21-induced actin polymerization,naïve T cells [1]; FIG. 2d,40-50%
same,reduction in homing of naïve T cells into the LN,naïve T cells [2]; FIG. 4a,50%
same,migration of T cells to the spleen,naïve T cells [2]; FIG. 4b,no difference
same,peribronchial and perivascular inflammatory infiltrate (inflammatory score 1-4),"[3]; CCL2 60 ng per day i.p., FIG. 8e",significantly reduced
same,histological changes in the lungs,"[3]; CCL2 60 ng per day i.p., FIG. 8d",barely detectable
same,airway responsiveness (delta Penh) to antigen challenge,"[3]; murine CCL2 60 ng per animal per day i.p. for 5 days, FIG. 8a",no airway hyperactivity was observed
same,Colon length (cm),TNBS colitis mouse model; [4],6.25 ± 0.65 cm
same,Diarrhea (# of mice),TNBS colitis mouse model; [4],4 # of mice
same,Colitis score,TNBS colitis mouse model; [4],10.875 ± 4.29
same,Colon length (cm),TNBS colitis mouse model; [5],7.88 ± 0.35 cm
same,Diarrhea (# of mice),TNBS colitis mouse model; [5],0 # of mice
same,Colitis score,TNBS colitis mouse model; [5],2.13 ± 1.89
same,Colon length (cm),TNBS colitis mouse model; [6],7.88 ± 0.58 cm
same,Diarrhea (# of mice),TNBS colitis mouse model; [6],0 # of mice
same,Colitis score,TNBS colitis mouse model; [6],2.88 ± 1.89
same,"TNBS colitis disease severity (diarrhea, colon shortening)","TNBS colitis mouse model; mice, CCL2 i.p. daily day 0 to day 6, Table 2, FIG. 10",significantly inhibited the disease
